ChEMBL document CHEMBL3856183, “Structure-activity relationships of 3-O-β-chacotriosyl oleanane-type triterpenoids as potential H5N1 entry inhibitors” (Eur J Med Chem, 2016)

Experiments:
[1] = Selectivity index, ratio of CC50 for MDCK cells to IC50 for Influenza A virus H5 subtype (A/Thailand/Kan353/2004(H5N1)) pseudovirus infected in MDCK cells co-infected with HA/HIV; assay type: functional
[2] = Cytotoxicity against MDCK cells assessed as cell death after 2 days by MTT assay; assay type: toxicity, cell-based, Canis lupus familiaris; conditions: dog
cells = conditions: Influenza A virus, MDCK
[3] = (§1) Binding affinity to influenza A virus A/Vietnam/1194/2004(H5N1) Hemagglutinin 2 subunit by surface plasmon resonance analysis
[4] = system: Influenza A virus (A/Vietnam/1194/2004(H5N1)); assay: as §1
[5] = (§2) Binding affinity to Influenza A virus A/Vietnam/1194/2004(H5N1) Hemagglutinin by surface plasmon resonance analysis
[6] = system: Influenza A virus (A/Vietnam/1194/2004(H5N1)); assay: as §2

With `COC(=O)[C@]12CCC(C)(C)C[C@H]1C1=CC(=O)[C@@H]3[C@@]4(C)CC[C@H](O[C@@H]5O[C@H](CO)[C@@H](O[C@@H]6O[C@@H](C)[C@H](O)[C@@H](O)[C@H]6O)[C@H](O)[C@H]5O[C@@H]5O[C@@H](C)[C@H](O)[C@@H](O)[C@H]5O)C(C)(C)[C@@H]4CC[C@@]3(C)[C@]1(C)CC2` the “Ratio CC50/IC50” value [1] was 3.1, the CC50 at 48 h [2] was 17.9 µM and the IC50 (cells) was 5.8 µM.
In the case of `COC(=O)[C@]12CCC(C)(C)C[C@H]1C1=CC[C@@H]3[C@@]4(C)CC[C@H](O[C@@H]5O[C@H](CO)[C@@H](O[C@@H]6O[C@@H](C)[C@H](O)[C@@H](O)[C@H]6O)[C@H](O)[C@H]5O[C@@H]5O[C@@H](C)[C@H](O)[C@@H](O)[C@H]5O)C(C)(C)[C@@H]4CC[C@@]3(C)[C@]1(C)CC2`, the “Ratio CC50/IC50” value [1] is reported as 3.6 and the IC50 (cells) is reported as 4.74 µM.
For `COC[C@]12CCC(C)(C)C[C@H]1C1=CC[C@@H]3[C@@]4(C)CC[C@H](O[C@@H]5O[C@H](CO)[C@@H](O[C@@H]6O[C@@H](C)[C@H](O)[C@@H](O)[C@H]6O)[C@H](O)[C@H]5O[C@@H]5O[C@@H](C)[C@H](O)[C@@H](O)[C@H]5O)C(C)(C)[C@@H]4CC[C@@]3(C)[C@]1(C)CC2`, the “Ratio CC50/IC50” value [1] was <1, the CC50 at 48 h [2] was 16.8 µM and the IC50 (cells) was > 20 µM.
With `COC(=O)[C@@]1(C)CC[C@]2(C)CC[C@]3(C)C(=CC(=O)[C@@H]4[C@@]5(C)CC[C@H](O[C@@H]6O[C@H](CO)[C@@H](O[C@@H]7O[C@@H](C)[C@H](O)[C@@H](O)[C@H]7O)[C@H](O)[C@H]6O[C@@H]6O[C@@H](C)[C@H](O)[C@@H](O)[C@H]6O)C(C)(C)[C@@H]5CC[C@]43C)[C@@H]2C1` the “Ratio CC50/IC50” value [1] was 8.3, the CC50 at 48 h [2] was 33.8 µM and the IC50 (cells) was 4.1 µM.
In the case of `C[C@@H]1O[C@@H](O[C@H]2[C@H](O[C@H]3CC[C@]4(C)[C@H]5CC=C6[C@@H]7CC(C)(C)CC[C@]7(C(=O)N(C)C)CC[C@@]6(C)[C@]5(C)CC[C@H]4C3(C)C)O[C@H](CO)[C@@H](O[C@@H]3O[C@@H](C)[C@H](O)[C@@H](O)[C@H]3O)[C@@H]2O)[C@H](O)[C@H](O)[C@H]1O`, the “Ratio CC50/IC50” value [1] is reported as 29.7, the Kd [3] is reported as 0.0112 µM and the Activity [4] is reported as “Dose-dependent effect”. For the same compound, the CC50 at 48 h [2] was 70 µM, the IC50 (cells) was 2.36 µM and the Kd [5] was 0.00446 µM. For the same compound, the Activity [6] was “Dose-dependent effect”.
For `CCCCCOC(=O)[C@]12CCC(C)(C)C[C@H]1C1=CC[C@@H]3[C@@]4(C)CC[C@H](O[C@@H]5O[C@H](CO)[C@@H](O[C@@H]6O[C@@H](C)[C@H](O)[C@@H](O)[C@H]6O)[C@H](O)[C@H]5O[C@@H]5O[C@@H](C)[C@H](O)[C@@H](O)[C@H]5O)C(C)(C)[C@@H]4CC[C@@]3(C)[C@]1(C)CC2`, the “Ratio CC50/IC50” value [1] was 6.9, the CC50 at 48 h [2] was 45.2 µM and the IC50 (cells) was 6.52 µM.
With `C[C@@H]1O[C@@H](O[C@H]2[C@H](O[C@H]3CC[C@]4(C)[C@H]5CC=C6[C@@H]7CC(C)(C)CC[C@]7(C=O)CC[C@@]6(C)[C@]5(C)CC[C@H]4C3(C)C)O[C@H](CO)[C@@H](O[C@@H]3O[C@@H](C)[C@H](O)[C@@H](O)[C@H]3O)[C@@H]2O)[C@H](O)[C@H](O)[C@H]1O` the “Ratio CC50/IC50” value [1] was 2.5, the CC50 at 48 h [2] was 21.1 µM and the IC50 (cells) was 8.58 µM.
For `COC(=O)[C@]12CCC(C)(C)C[C@H]1C1=CC[C@@H]3[C@@]4(C)CC[C@@H](O[C@@H]5O[C@H](CO)[C@@H](O[C@@H]6O[C@@H](C)[C@H](O)[C@@H](O)[C@H]6O)[C@H](O)[C@H]5O[C@@H]5O[C@@H](C)[C@H](O)[C@@H](O)[C@H]5O)C(C)(C)[C@@H]4CC[C@@]3(C)[C@]1(C)CC2`, the “Ratio CC50/IC50” value [1] was >38, the CC50 at 48 h [2] was > 200 µM and the IC50 (cells) was 5.26 µM.
In the case of `C[C@@H]1O[C@@H](O[C@H]2[C@H](O[C@H]3CC[C@]4(C)[C@H]5CC=C6[C@@H]7CC(C)(C)CC[C@]7(C(=O)OCc7ccccc7)CC[C@@]6(C)[C@]5(C)CC[C@H]4C3(C)C)O[C@H](CO)[C@@H](O[C@@H]3O[C@@H](C)[C@H](O)[C@@H](O)[C@H]3O)[C@@H]2O)[C@H](O)[C@H](O)[C@H]1O`, the “Ratio CC50/IC50” value [1] is reported as 13.4, the CC50 at 48 h [2] is reported as 75.4 µM and the IC50 (cells) is reported as 5.62 µM.
For `C[C@@H]1O[C@@H](O[C@H]2[C@H](O[C@H]3CC[C@]4(C)[C@H]5CC=C6[C@@H]7CC(C)(C)CC[C@]7(C(=O)OC7CCCC7)CC[C@@]6(C)[C@]5(C)CC[C@H]4C3(C)C)O[C@H](CO)[C@@H](O[C@@H]3O[C@@H](C)[C@H](O)[C@@H](O)[C@H]3O)[C@@H]2O)[C@H](O)[C@H](O)[C@H]1O`, the “Ratio CC50/IC50” value [1] was 12.1, the CC50 at 48 h [2] was 58.2 µM and the IC50 (cells) was 4.8 µM.
With `CCN(CC)C(=O)[C@]12CCC(C)(C)C[C@H]1C1=CC[C@@H]3[C@@]4(C)CC[C@H](O[C@@H]5O[C@H](CO)[C@@H](O[C@@H]6O[C@@H](C)[C@H](O)[C@@H](O)[C@H]6O)[C@H](O)[C@H]5O[C@@H]5O[C@@H](C)[C@H](O)[C@@H](O)[C@H]5O)C(C)(C)[C@@H]4CC[C@@]3(C)[C@]1(C)CC2` the “Ratio CC50/IC50” value [1] was 27.8, the CC50 at 48 h [2] was 69 µM and the IC50 (cells) was 2.48 µM.
In the case of `CC1(C)CC[C@]2(C(=O)O)CC[C@]3(C)C(=CC[C@@H]4[C@@]5(C)CC[C@H](O)C(C)(C)[C@@H]5CC[C@]43C)[C@@H]2C1` [OLEANOLIC_ACID], the “Ratio CC50/IC50” value [1] is reported as <1, the CC50 at 48 h [2] is reported as 23.1 µM and the IC50 (cells) is reported as > 50 µM.
In the case of `C[C@@H]1O[C@@H](O[C@H]2[C@H](O[C@H]3CC[C@]4(C)[C@H]5CC=C6[C@@H]7CC(C)(C)CC[C@]7(C(=O)O)CC[C@@]6(C)[C@]5(C)CC[C@H]4C3(C)C)O[C@H](CO)[C@@H](O[C@@H]3O[C@@H](C)[C@H](O)[C@@H](O)[C@H]3O)[C@@H]2O)[C@H](O)[C@H](O)[C@H]1O`, the “Ratio CC50/IC50” value [1] is reported as 2, the CC50 at 48 h [2] is reported as 18.7 µM and the IC50 (cells) is reported as 9.39 µM.
For `O=C(NCCN1CCCCC1)c1cc(F)cc(C(F)(F)F)c1`, the “Ratio CC50/IC50” value [1] was 332.3.
For `C[C@@H]1CC[C@@]2(OC1)O[C@H]1C[C@H]3[C@@H]4C[C@H](O)[C@H]5C[C@@H](O[C@@H]6O[C@H](CO)[C@@H](O[C@@H]7O[C@@H](C)[C@H](O)[C@@H](O)[C@H]7O)[C@H](O)[C@H]6O[C@@H]6O[C@@H](C)[C@H](O)[C@@H](O)[C@H]6O)CC[C@]5(C)[C@H]4CC[C@]3(C)[C@H]1[C@@H]2C`, the “Ratio CC50/IC50” value [1] was 2.3, the CC50 at 48 h [2] was 18.3 µM and the IC50 (cells) was 7.92 µM.
In the case of `CCOC(=O)[C@]12CCC(C)(C)C[C@H]1C1=CC[C@@H]3[C@@]4(C)CC[C@H](O[C@@H]5O[C@H](CO)[C@@H](O[C@@H]6O[C@@H](C)[C@H](O)[C@@H](O)[C@H]6O)[C@H](O)[C@H]5O[C@@H]5O[C@@H](C)[C@H](O)[C@@H](O)[C@H]5O)C(C)(C)[C@@H]4CC[C@@]3(C)[C@]1(C)CC2`, the “Ratio CC50/IC50” value [1] is reported as 7.2, the CC50 at 48 h [2] is reported as 37.4 µM and the IC50 (cells) is reported as 5.2 µM.
